# Experimental data as given in ChEMBL document CHEMBL1201862, “PubChem BioAssay data set” (2004).
#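 Compound exposure: 48 hours, 5 concentrations, 96-well plates. GI50 = concentration required for 50% inhibition of growth.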 Activity calls are given as the source filed them. Rule as the data show it: active = GI50 up to about 1.1 µM and inactive = higher.
# What was measured:
# Assay in all cases: inhibition of tumour cell growth, NCI panel, 48 h
# [1] = tested on: 786-0
# [2] = tested on: A498
# [3] = tested on: A549
# [4] = tested on: ACHN
# [5] = tested on: BT-549
# [6] = tested on: CAKI-1
# [7] = tested on: CCRF-CEM
# [8] = tested on: COLO 205
# [9] = tested on: DU-145
# [10] = tested on: EKVX
# [11] = tested on: HCT-116
# [12] = tested on: HCT-15
# [13] = tested on: HL-60
# [14] = tested on: HOP-62
# [15] = tested on: HOP-92
# [16] = tested on: HT-29
# [17] = tested on: Hs-578T
# [18] = tested on: IGROV-1
# [19] = tested on: K562
# [20] = tested on: KM12
# [21] = tested on: LOX IMVI
# [22] = tested on: M14
# [23] = tested on: MCF7
# [24] = tested on: MDA-MB-231
# [25] = tested on: MDA-MB-435
# [26] = tested on: MDA-N
# [27] = tested on: MOLT-4
# [28] = tested on: Malme-3M
# [29] = tested on: NCI-H226
# [30] = tested on: NCI-H23
# [31] = tested on: NCI-H460
# [32] = tested on: NCI-H522
# [33] = tested on: NCI/ADR-RES
# [34] = tested on: OVCAR-3
# [35] = tested on: OVCAR-4
# [36] = tested on: OVCAR-5
# [37] = tested on: OVCAR-8
# [38] = tested on: PC-3
# [39] = tested on: RPMI-8226
# [40] = tested on: RXF 393
# [41] = tested on: SF-268
# [42] = tested on: SF-295
# [43] = tested on: SF-539
# [44] = tested on: SK-MEL-28
# [45] = tested on: SK-MEL-2
# [46] = tested on: SK-MEL-5
# [47] = tested on: SK-OV-3
# [48] = tested on: SN12C
# [49] = tested on: SNB-75
# [50] = tested on: SR
# [51] = tested on: SW-620
# [52] = tested on: T47D
# [53] = tested on: TK-10
# [54] = tested on: U-251
# [55] = tested on: UACC-257
# [56] = tested on: UACC-62
# [57] = tested on: UO-31
# [58] = tested on: SNB-19
structure (smiles),measurement,setting,value
O=[N+]([O-])c1nccn1CCCNc1c2ccccc2[n+]([O-])c2ccccc12,GI50,[1],> 100 µM (inactive)
same,GI50,[2],> 100 µM (inactive)
same,GI50,[3],> 100 µM (inactive)
same,GI50,[4],> 100 µM (inactive)
same,GI50,[5],> 100 µM (inactive)
same,GI50,[6],> 100 µM (inactive)
same,GI50,[7],> 100 µM (inactive)
same,GI50,[8],18.2 µM (inactive)
same,GI50,[9],> 100 µM (inactive)
same,GI50,[10],> 100 µM (inactive)
same,GI50,[11],> 100 µM (inactive)
same,GI50,[12],> 100 µM
same,GI50,[13],> 100 µM (inactive)
same,GI50,[14],> 100 µM (inactive)
same,GI50,[15],27.5 µM (inactive)
same,GI50,[16],43.6 µM (inactive)
same,GI50,[17],> 100 µM (inactive)
same,GI50,[18],51.9 µM (inactive)
same,GI50,[19],> 100 µM (inactive)
same,GI50,[20],> 100 µM (inactive)
same,GI50,[21],> 100 µM (inactive)
same,GI50,[22],> 100 µM (inactive)
same,GI50,[23],> 100 µM (inactive)
same,GI50,[24],> 100 µM (inactive)
same,GI50,[25],> 100 µM (inactive)
same,GI50,[26],> 100 µM (inactive)
same,GI50,[27],> 100 µM (inactive)
same,GI50,[28],> 100 µM (inactive)
same,GI50,[29],38.6 µM (inactive)
same,GI50,[30],> 100 µM (inactive)
same,GI50,[31],51.3 µM (inactive)
same,GI50,[32],> 100 µM (inactive)
same,GI50,[33],> 100 µM (inactive)
same,GI50,[34],> 100 µM (inactive)
same,GI50,[35],50.2 µM (inactive)
same,GI50,[36],> 100 µM (inactive)
same,GI50,[37],> 100 µM (inactive)
same,GI50,[38],> 100 µM (inactive)
same,GI50,[39],> 100 µM (inactive)
same,GI50,[40],> 100 µM (inactive)
same,GI50,[41],> 100 µM (inactive)
same,GI50,[42],> 100 µM (inactive)
same,GI50,[43],> 100 µM (inactive)
same,GI50,[44],> 100 µM (inactive)
same,GI50,[45],88.5 µM (inactive)
same,GI50,[46],> 100 µM (inactive)
same,GI50,[47],> 100 µM (inactive)
same,GI50,[48],> 100 µM (inactive)
same,GI50,[49],> 100 µM (inactive)
same,GI50,[50],> 100 µM (inactive)
same,GI50,[51],> 100 µM (inactive)
same,GI50,[52],> 100 µM (inactive)
same,GI50,[53],> 100 µM (inactive)
same,GI50,[54],> 100 µM (inactive)
same,GI50,[55],> 100 µM (inactive)
same,GI50,[56],> 100 µM (inactive)
same,GI50,[57],> 100 µM (inactive)
CC1=NN(c2ccc(S(=O)(=O)O)cc2)C(=O)/C1=C/c1ccc(Cl)cc1.c1ccncc1,GI50,[1],> 100 µM (inactive)
same,GI50,[2],> 100 µM (inactive)
same,GI50,[3],> 100 µM (inactive)
same,GI50,[4],> 100 µM (inactive)
same,GI50,[5],> 100 µM (inactive)
same,GI50,[6],> 100 µM (inactive)
same,GI50,[7],> 100 µM (inactive)
same,GI50,[8],> 100 µM (inactive)
same,GI50,[9],> 100 µM (inactive)
same,GI50,[10],> 100 µM (inactive)
same,GI50,[11],> 100 µM (inactive)
same,GI50,[12],> 100 µM
same,GI50,[13],> 100 µM (inactive)
same,GI50,[14],> 100 µM (inactive)
same,GI50,[15],> 100 µM (inactive)
same,GI50,[16],> 100 µM (inactive)
same,GI50,[17],> 100 µM (inactive)
same,GI50,[18],> 100 µM (inactive)
same,GI50,[19],> 100 µM (inactive)
same,GI50,[20],> 100 µM (inactive)
same,GI50,[21],> 100 µM (inactive)
same,GI50,[22],> 100 µM (inactive)
same,GI50,[23],> 100 µM (inactive)
same,GI50,[24],> 100 µM (inactive)
same,GI50,[25],> 100 µM (inactive)
same,GI50,[26],> 100 µM (inactive)
same,GI50,[27],> 100 µM (inactive)
same,GI50,[28],> 100 µM (inactive)
same,GI50,[29],> 100 µM (inactive)
same,GI50,[30],> 100 µM (inactive)
same,GI50,[31],> 100 µM (inactive)
same,GI50,[32],> 100 µM (inactive)
same,GI50,[33],> 100 µM (inactive)
same,GI50,[34],> 100 µM (inactive)
same,GI50,[35],> 100 µM (inactive)
same,GI50,[36],> 100 µM (inactive)
same,GI50,[37],> 100 µM (inactive)
same,GI50,[38],> 100 µM (inactive)
same,GI50,[39],> 100 µM (inactive)
same,GI50,[40],> 100 µM (inactive)
same,GI50,[41],> 100 µM (inactive)
same,GI50,[42],> 100 µM (inactive)
same,GI50,[43],> 100 µM (inactive)
same,GI50,[44],> 100 µM (inactive)
same,GI50,[45],> 100 µM (inactive)
same,GI50,[46],> 100 µM (inactive)
same,GI50,[47],> 100 µM (inactive)
same,GI50,[48],> 100 µM (inactive)
same,GI50,[58],> 100 µM (inactive)
same,GI50,[49],> 100 µM (inactive)
same,GI50,[50],> 100 µM (inactive)
same,GI50,[51],> 100 µM (inactive)
same,GI50,[52],> 100 µM (inactive)
same,GI50,[53],> 100 µM (inactive)
same,GI50,[54],> 100 µM (inactive)
same,GI50,[55],> 100 µM (inactive)
same,GI50,[56],> 100 µM (inactive)
same,GI50,[57],> 100 µM (inactive)
O=[N+]([O-])c1ccc(S[C@@H]2[C@H]3c4c(-c5ccccc5)[nH]c(-c5ccccc5)c4[C@@H]2C[C@H]3Cl)cc1,GI50,[1],2.62 µM (inactive)
same,GI50,[2],4.82 µM (inactive)
same,GI50,[3],2.74 µM (inactive)
same,GI50,[4],3.7 µM (inactive)
same,GI50,[5],3.66 µM (inactive)
same,GI50,[6],3.38 µM (inactive)
same,GI50,[8],6.17 µM (inactive)
same,GI50,[9],3.31 µM (inactive)
same,GI50,[11],1.76 µM (inactive)
same,GI50,[12],2.39 µM
same,GI50,[13],3.17 µM (inactive)
same,GI50,[14],3.56 µM (inactive)
same,GI50,[15],0.895 µM (active)
same,GI50,[16],3.37 µM (inactive)
same,GI50,[17],5.08 µM (inactive)
same,GI50,[18],2.79 µM (inactive)
same,GI50,[20],3.05 µM (inactive)
same,GI50,[21],3.1 µM (inactive)
same,GI50,[22],3.23 µM (inactive)
same,GI50,[23],2.31 µM (inactive)
same,GI50,[24],4.8 µM (inactive)
same,GI50,[25],3.58 µM (inactive)
same,GI50,[26],2.89 µM (inactive)
same,GI50,[28],10.6 µM (inactive)
same,GI50,[29],6.71 µM (inactive)
same,GI50,[30],2.38 µM (inactive)
same,GI50,[31],2.4 µM (inactive)
same,GI50,[32],2.9 µM (inactive)
same,GI50,[33],2.87 µM (inactive)
same,GI50,[34],3.33 µM (inactive)
same,GI50,[35],1.6 µM (inactive)
same,GI50,[36],9.95 µM (inactive)
same,GI50,[37],4.38 µM (inactive)
same,GI50,[38],3.8 µM (inactive)
same,GI50,[40],0.938 µM (active)
same,GI50,[41],2.68 µM (inactive)
same,GI50,[42],3.71 µM (inactive)
same,GI50,[43],6.75 µM (inactive)
same,GI50,[44],18.1 µM (inactive)
same,GI50,[45],11.2 µM (inactive)
same,GI50,[46],4.66 µM (inactive)
same,GI50,[47],9.98 µM (inactive)
same,GI50,[48],2.94 µM (inactive)
same,GI50,[58],4.6 µM (inactive)
same,GI50,[49],2.15 µM (inactive)
same,GI50,[50],1.14 µM (inactive)
same,GI50,[51],3.37 µM (inactive)
same,GI50,[52],1.93 µM (inactive)
same,GI50,[53],4.99 µM (inactive)
same,GI50,[54],4.17 µM (inactive)
same,GI50,[55],14.8 µM (inactive)
same,GI50,[56],2.83 µM (inactive)
same,GI50,[57],1.62 µM (inactive)
